Results published in publication PMC5830883, “A Functional Signature Ontology (FUSION) screen detects an AMPK inhibitor with selective toxicity toward human colon tumor cells” (Scientific Reports, 2018).

Key:
[1] = target: T1, AMPKα2 (recombinant AMPKα2β1γ1) (Homo sapiens, UniProt P54619+P54646+Q9Y478); test: radiometric in vitro kinase assay with SAMS peptide and […]-ATP; format: biochemical
T1 construct: gene PRKAA2; recombinant AMPKα2β1γ1 heterotrimer (#P48-10H, SignalChem); with AMPKβ1, AMPKγ1
T1 sequence (P54646 whole entry): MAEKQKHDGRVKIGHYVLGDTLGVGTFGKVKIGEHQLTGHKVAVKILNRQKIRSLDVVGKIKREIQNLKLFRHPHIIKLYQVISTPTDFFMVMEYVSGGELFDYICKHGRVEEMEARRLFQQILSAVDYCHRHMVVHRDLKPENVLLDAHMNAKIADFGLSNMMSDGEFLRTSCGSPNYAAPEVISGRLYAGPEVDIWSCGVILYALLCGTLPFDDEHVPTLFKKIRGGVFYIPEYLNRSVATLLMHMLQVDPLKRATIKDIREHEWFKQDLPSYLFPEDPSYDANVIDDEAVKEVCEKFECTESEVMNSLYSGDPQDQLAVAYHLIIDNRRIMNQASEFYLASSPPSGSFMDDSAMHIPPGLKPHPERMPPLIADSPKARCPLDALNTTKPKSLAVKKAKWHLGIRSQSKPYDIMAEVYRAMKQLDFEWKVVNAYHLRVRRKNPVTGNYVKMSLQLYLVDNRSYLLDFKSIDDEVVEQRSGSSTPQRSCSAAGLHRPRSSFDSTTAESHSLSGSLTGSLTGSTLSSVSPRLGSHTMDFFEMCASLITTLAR
T1 sequence (Q9Y478 2-270 partner): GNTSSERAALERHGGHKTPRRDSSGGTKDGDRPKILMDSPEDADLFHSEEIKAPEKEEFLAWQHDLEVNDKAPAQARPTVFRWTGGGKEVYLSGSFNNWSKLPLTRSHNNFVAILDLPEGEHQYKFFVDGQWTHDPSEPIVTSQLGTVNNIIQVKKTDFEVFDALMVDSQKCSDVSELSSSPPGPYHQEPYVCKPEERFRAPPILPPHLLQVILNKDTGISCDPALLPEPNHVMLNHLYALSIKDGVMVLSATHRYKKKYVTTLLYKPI
T1 sequence (P54619 whole entry partner): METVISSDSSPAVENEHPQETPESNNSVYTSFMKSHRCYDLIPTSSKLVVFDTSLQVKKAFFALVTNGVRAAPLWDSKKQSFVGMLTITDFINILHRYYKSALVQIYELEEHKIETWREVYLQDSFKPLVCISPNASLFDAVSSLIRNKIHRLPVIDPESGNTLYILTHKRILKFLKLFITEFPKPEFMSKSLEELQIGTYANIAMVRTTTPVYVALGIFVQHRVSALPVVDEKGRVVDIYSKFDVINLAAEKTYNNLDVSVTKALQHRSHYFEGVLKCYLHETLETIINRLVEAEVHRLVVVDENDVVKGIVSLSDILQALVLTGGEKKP

[2] = target: T2, AMPKα1 (recombinant AMPKα1β1γ1) (Homo sapiens, UniProt Q13131); test: radiometric in vitro kinase assay with SAMS peptide and […]-ATP; Lineweaver-Burk; IC50 […]; format: biochemical
T2 construct: gene PRKAA1; recombinant AMPKα1β1γ1 heterotrimer (#P47-10H, SignalChem); with AMPKβ1, AMPKγ1
T2 sequence (Q13131 whole entry): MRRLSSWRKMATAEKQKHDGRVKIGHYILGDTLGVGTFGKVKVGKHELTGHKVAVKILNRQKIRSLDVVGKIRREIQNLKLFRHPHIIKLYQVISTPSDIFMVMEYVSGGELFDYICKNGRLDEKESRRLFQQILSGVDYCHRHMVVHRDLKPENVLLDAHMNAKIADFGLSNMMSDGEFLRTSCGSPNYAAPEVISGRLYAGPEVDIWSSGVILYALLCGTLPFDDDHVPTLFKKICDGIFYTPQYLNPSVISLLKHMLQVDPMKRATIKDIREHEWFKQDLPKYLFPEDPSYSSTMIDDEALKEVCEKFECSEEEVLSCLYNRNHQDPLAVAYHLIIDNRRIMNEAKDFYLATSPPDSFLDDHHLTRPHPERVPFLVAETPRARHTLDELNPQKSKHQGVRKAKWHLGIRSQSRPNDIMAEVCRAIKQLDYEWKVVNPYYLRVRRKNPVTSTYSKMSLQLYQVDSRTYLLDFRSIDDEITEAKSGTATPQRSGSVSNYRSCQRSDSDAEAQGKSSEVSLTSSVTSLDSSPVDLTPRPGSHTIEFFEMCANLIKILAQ
T2 sequence (Q9Y478 2-270 partner): as the sequence (Q9Y478 2-270 partner) above
T2 sequence (P54619 whole entry partner): as the sequence (P54619 whole entry partner) above

CN[C@@H]1C(O)[C@H]2O[C@@](C)([C@@H]1OC)n1c3ccccc3c3c4c(c5c6ccccc6n2c5c31)C(=O)NC4 (some centres unmarked) [5-OH-S, 5′-hydroxy-staurosporine]
IC50 [1]: 583 nM
Ki [2]: 347 nM
